pEC50: −log10 of the molar value. Structures can show the parent of a compound that is named as a salt.
Experiments:
Experiment in all cases: Method 1: intracellular Ca2+ release (FLIPR, Calcium 5) in recombinant CHO-K1 cells
Assay type in all cases: cell-based
[1] = biological target: T1, human S1PR4 receptor (Homo sapiens, UniProt O95977); details: (1): determined with method 1; read-out: S1P4 EC50
T1 construct: host or cells: CHO-K1
T1 sequence (O95977 1-384): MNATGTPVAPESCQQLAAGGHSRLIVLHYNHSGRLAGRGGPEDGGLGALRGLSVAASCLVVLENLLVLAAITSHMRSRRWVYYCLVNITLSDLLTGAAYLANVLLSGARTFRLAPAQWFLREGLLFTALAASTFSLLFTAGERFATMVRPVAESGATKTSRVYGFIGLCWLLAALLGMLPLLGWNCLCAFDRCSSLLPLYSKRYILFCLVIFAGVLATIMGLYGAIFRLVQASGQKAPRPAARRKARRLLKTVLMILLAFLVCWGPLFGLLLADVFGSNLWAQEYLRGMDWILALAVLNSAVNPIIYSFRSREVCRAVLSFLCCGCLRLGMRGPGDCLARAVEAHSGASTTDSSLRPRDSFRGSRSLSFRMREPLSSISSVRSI
Summary of the method: (§1)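 Cells expressing the receptor with promiscuous Gq/i5 are dye-loaded, equilibrated at room temperature and challenged with test compound while fluorescence is recorded by FLIPR. Potency is derived by nonlinear fitting after normalization to phospho-fingolimod.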

[2] = biological target: T2, human S1PR5 receptor (Homo sapiens, UniProt Q9H228); details: agonist potency, determined with method 1 (symbols A-D); read-out: S1P5 EC50 range
T2 construct: host or cells: CHO-K1
Summary of the method: as §1

[3] = biological target: T3, human S1PR1 receptor (Homo sapiens, UniProt P21453); details: (1): determined with method 1; read-out: S1P1 EC50
T3 construct: host or cells: CHO-K1
Summary of the method: as §1

[4] = biological target: T4, human S1PR3 receptor (Homo sapiens, UniProt Q99500); details: (1): determined with method 1; read-out: S1P3 EC50
T4 construct: host or cells: CHO-K1
Summary of the method: as §1

T3 sequence (P21453 whole entry): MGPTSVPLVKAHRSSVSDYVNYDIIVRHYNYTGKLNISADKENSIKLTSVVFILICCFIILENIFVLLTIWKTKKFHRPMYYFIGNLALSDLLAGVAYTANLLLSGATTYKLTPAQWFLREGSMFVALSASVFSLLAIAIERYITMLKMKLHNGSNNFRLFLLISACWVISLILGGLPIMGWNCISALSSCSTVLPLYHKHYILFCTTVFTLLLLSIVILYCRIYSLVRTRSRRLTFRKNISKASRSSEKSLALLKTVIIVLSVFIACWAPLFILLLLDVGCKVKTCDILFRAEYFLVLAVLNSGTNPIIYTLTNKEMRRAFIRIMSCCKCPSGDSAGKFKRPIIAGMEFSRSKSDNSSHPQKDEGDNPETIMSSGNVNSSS
T4 sequence (Q99500 whole entry): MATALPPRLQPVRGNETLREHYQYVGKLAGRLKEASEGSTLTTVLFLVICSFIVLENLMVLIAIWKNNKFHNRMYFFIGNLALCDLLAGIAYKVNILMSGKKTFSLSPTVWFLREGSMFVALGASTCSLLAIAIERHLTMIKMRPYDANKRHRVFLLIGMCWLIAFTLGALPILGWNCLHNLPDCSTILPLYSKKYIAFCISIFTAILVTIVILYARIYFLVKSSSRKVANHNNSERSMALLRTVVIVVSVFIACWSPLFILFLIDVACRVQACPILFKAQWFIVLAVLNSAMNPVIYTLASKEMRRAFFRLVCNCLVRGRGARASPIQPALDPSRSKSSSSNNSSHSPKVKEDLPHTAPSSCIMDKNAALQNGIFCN
T2 sequence (Q9H228 whole entry): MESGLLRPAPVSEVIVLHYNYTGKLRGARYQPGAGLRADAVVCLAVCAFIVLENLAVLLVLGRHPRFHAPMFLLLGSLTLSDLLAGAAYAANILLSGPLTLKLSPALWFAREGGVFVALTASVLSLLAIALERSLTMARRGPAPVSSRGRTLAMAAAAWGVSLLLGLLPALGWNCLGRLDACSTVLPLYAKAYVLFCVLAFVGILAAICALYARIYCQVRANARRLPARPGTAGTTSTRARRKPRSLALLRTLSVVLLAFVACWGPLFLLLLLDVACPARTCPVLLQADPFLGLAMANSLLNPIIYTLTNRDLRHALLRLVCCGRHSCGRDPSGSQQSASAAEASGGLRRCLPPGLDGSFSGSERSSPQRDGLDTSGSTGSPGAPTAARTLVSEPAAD

Structure (SMILES) | pEC50 [1] | pEC50 [2] | pEC50 [3] | pEC50 [4]
Cc1cccc(COc2ccc(-c3ncc4c(n3)CCN(CC(C)CC(=O)O)C4)c(F)c2)c1C (centres unmarked) [Compound 231, 4-[2-[4-[(2,3-dimethylphenyl)methoxy]-2-fluoro-phenyl]-7,8-dihydro-5H-pyrido[4,3-d]pyrimidin-6-yl]-3-methyl-butanoic acid 2,2,2-trifluoroacetic acid salt] | < 6.00 | > 8.00 | < 6.00 | < 6.00
CC(CC(=O)O)CN1CCc2nc(-c3ccc(OCc4cccc(Cl)c4)cc3F)ncc2C1 (centres unmarked) [Compound 232, 4-(2-(4-((3-chlorobenzyl)oxy)-2-fluorophenyl)-7,8-dihydropyrido[4,3-d]pyrimidin-6(5H)-yl)-3-methylbutanoic acid] | < 6.00 | > 8.00 | < 6.00 | < 6.00
CC(CC(=O)O)CN1CCc2nc(-c3ccc(OCc4ccc(C(F)(F)F)cc4)cc3)ncc2C1 (centres unmarked) [Compound 233, 3-methyl-4-(2-(4-((4-(trifluoromethyl)benzyl)oxy)phenyl)-7,8-dihydropyrido[4,3-d]pyrimidin-6(5H)-yl)butanoic acid] | > 6.00 | > 8.00 | > 6.00 | < 6.00
Cc1ccccc1COc1ccc(-c2ncc3c(n2)CCN(CC(C)CC(=O)O)C3)cc1 (centres unmarked) [Compound 234, 3-methyl-4-[2-[4-(o-tolylmethoxy)phenyl]-7,8-dihydro-5H-pyrido[4,3-d]pyrimidin-6-yl]butanoic acid 2,2,2-trifluoroacetic acid salt] | < 6.00 | > 8.00 | > 6.00 | < 6.00
CC(CC(=O)O)CN1CCc2nc(-c3ccc(OCc4ccccc4F)cc3)ncc2C1 (centres unmarked) [Compound 235, 4-[2-[4-[(2-fluorophenyl)methoxy]phenyl]-7,8-dihydro-5H-pyrido[4,3-d]pyrimidin-6-yl]-3-methyl-butanoic acid 2,2,2-trifluoroacetic acid salt] | < 6.00 | > 8.00 | > 6.00 | < 6.00
CC(CC(=O)O)CN1CCc2nc(-c3ccc(OCc4ccc(Cl)cc4)cc3F)ncc2C1 (centres unmarked) [Compound 236, 4-(2-(4-((4-chlorobenzyl)oxy)-2-fluorophenyl)-7,8-dihydropyrido[4,3-d]pyrimidin-6(5H)-yl)-3-methylbutanoic acid] | < 6.00 | > 8.00 | < 6.00 | < 6.00
C[C@H](CC(=O)O)CN1CCc2nc(-c3ccc(CCc4ccc(Cl)cc4)cc3)ncc2C1 [Compound 237, (R)-4-(2-(4-(4-chlorophenethyl)phenyl)-7,8-dihydropyrido[4,3-d]pyrimidin-6(5H)-yl)-3-methylbutanoic acid] | < 6.00 | > 8.00 | < 6.00 | < 6.00
CC(CC(=O)O)CN1CCc2nc(-c3ccc(OCc4cccc(C(F)(F)F)c4)cc3)ncc2C1 (centres unmarked) [Compound 238, 3-methyl-4-(2-(4-((3-(trifluoromethyl)benzyl)oxy)phenyl)-7,8-dihydropyrido[4,3-d]pyrimidin-6(5H)-yl)butanoic acid] | > 6.00 | > 8.00 | > 6.00 | < 6.00
Cc1ccccc1COc1ccc(-c2ncc3c(n2)CCN(CC(C)CC(=O)O)C3)cc1C (centres unmarked) [Compound 239] | < 6.00 | > 8.00 | < 6.00 | < 6.00
CC(CC(=O)O)CN1CCc2nc(-c3ccc(OCc4c(F)cccc4F)cc3F)ncc2C1 (centres unmarked) [Compound 240, 4-[2-[4-[(2,6-difluorophenyl)methoxy]-2-fluoro-phenyl]-7,8-dihydro-5H-pyrido[4,3-d]pyrimidin-6-yl]-3-methyl-butanoic acid 2,2,2-trifluoroacetic acid salt] | < 6.00 | > 8.00 | < 6.00 | < 6.00
Cc1c(COc2ccc(-c3ncc4c(n3)CCN(CC(C)CC(=O)O)C4)c(F)c2)cccc1C(F)(F)F (centres unmarked) [Compound 241, 4-[2-[2-fluoro-4-[[2-methyl-3-(trifluoromethyl)phenyl]methoxy]phenyl]-7,8-dihydro-5H-pyrido[4,3-d]pyrimidin-6-yl]-3-methyl-butanoic acid 2,2,2-trifluoroacetic acid salt] | < 6.00 | > 8.00 | < 6.00 | < 6.00
CC(CC(=O)O)CN1CCc2nc(-c3ccc(OCc4ccccc4F)cc3F)ncc2C1 (centres unmarked) [Compound 242, 4-[2-[2-fluoro-4-[(2-fluorophenyl)methoxy]phenyl]-7,8-dihydro-5H-pyrido[4,3-d]pyrimidin-6-yl]-3-methyl-butanoic acid 2,2,2-trifluoroacetic acid salt] | < 6.00 | > 8.00 | < 6.00 | < 6.00
CC(CC(=O)O)CN1CCc2nc(-c3ccc(OCc4c(Cl)cccc4Cl)cc3)ncc2C1 (centres unmarked) [Compound 243, 4-[2-[4-[(2,6-dichlorophenyl)methoxy]phenyl]-7,8-dihydro-5H-pyrido[4,3-d]pyrimidin-6-yl]-3-methyl-butanoic acid 2,2,2-trifluoroacetic acid salt] | < 6.00 | > 8.00 | < 6.00 | < 6.00
CC(CC(=O)O)CN1CCc2nc(-c3ccc(CCc4ccc(Cl)cc4)cc3)ncc2C1 (centres unmarked) [Compound 244, 4-(2-(4-(4-chlorophenethyl)phenyl)-7,8-dihydropyrido[4,3-d]pyrimidin-6(5H)-yl)-3-methylbutanoic acid] | < 6.00 | > 8.00 | < 6.00 | < 6.00
Cc1c(COc2ccc(-c3ncc4c(n3)CCN(CC(C)CC(=O)O)C4)cc2)cccc1C(F)(F)F (centres unmarked) [Compound 246, 3-methyl-4-[2-[4-[[2-methyl-3-(trifluoromethyl)phenyl]methoxy]phenyl]-7,8-dihydro-5H-pyrido[4,3-d]pyrimidin-6-yl]butanoic acid 2,2,2-trifluoroacetic acid salt] | < 6.00 | > 8.00 | < 6.00 | < 6.00
Cc1ccc(COc2ccc(-c3ncc4c(n3)CCN(CC(C)CC(=O)O)C4)cc2)cc1C(F)(F)F (centres unmarked) [Compound 247, 3-methyl-4-[2-[4-[[4-methyl-3-(trifluoromethyl)phenyl]methoxy]phenyl]-7,8-dihydro-5H-pyrido[4,3-d]pyrimidin-6-yl]butanoic acid 2,2,2-trifluoroacetic acid salt] | < 6.00 | > 8.00 | < 6.00 | < 6.00
Cc1ccc(COc2ccc(-c3ncc4c(n3)CCN(CC(C)CC(=O)O)C4)cc2)cc1 (centres unmarked) [Compound 248, 3-methyl-4-(2-(4-((4-methylbenzyl)oxy)phenyl)-7,8-dihydropyrido[4,3-d]pyrimidin-6(5H)-yl)butanoic acid] | < 6.00 | > 8.00 | > 6.00 | < 6.00
Cc1ccccc1COc1ccc(-c2ncc3c(n2)CCN(C[C@@H](C)CC(=O)O)C3)cc1C [Compound 249] | < 6.00 | > 8.00 | < 6.00 | < 6.00
CC(CC(=O)O)CN1CCc2nc(-c3ccc(CCc4ccc(Cl)cc4F)cc3)ncc2C1 (centres unmarked) [Compound 250, 4-(2-(4-(4-chloro-2-fluorophenethyl)phenyl)-7,8-dihydropyrido[4,3-d]pyrimidin-6(5H)-yl)-3-methylbutanoic acid] | < 6.00 | > 8.00 | < 6.00 | < 6.00
Cc1cc(-c2ncc3c(n2)CCN(CC(C)CC(=O)O)C3)ccc1OCc1ccccc1 (centres unmarked) [Compound 251, 4-(2-(4-(benzyloxy)-3-methylphenyl)-7,8-dihydropyrido[4,3-d]pyrimidin-6(5H)-yl)-3-methylbutanoic acid] | < 6.00 | > 8.00 | < 6.00 | < 6.00
Cc1cc(-c2ncc3c(n2)CCN(CC(C)CC(=O)O)C3)ccc1OCc1cccc(Cl)c1 (centres unmarked) [Compound 252, 4-(2-(4-((3-chlorobenzyl)oxy)-3-methylphenyl)-7,8-dihydropyrido[4,3-d]pyrimidin-6(5H)-yl)-3-methylbutanoic acid] | < 6.00 | > 8.00 | < 6.00 | < 6.00
CC(CC(=O)O)CN1CCc2nc(-c3ccc(C(F)Cc4ccc(Cl)cc4F)cc3)ncc2C1 (centres unmarked) [Compound 253] | < 6.00 | > 8.00 | < 6.00 | < 6.00
CC(CC(=O)O)CN1CCc2nc(-c3ccc(OCc4ccccc4C(F)(F)F)cc3)ncc2C1 (centres unmarked) [Compound 254, 3-methyl-4-[2-[4-[[2-(trifluoromethyl)phenyl]methoxy]phenyl]-7,8-dihydro-5H-pyrido[4,3-d]pyrimidin-6-yl]butanoic acid 2,2,2-trifluoroacetic acid salt] | < 6.00 | > 8.00 | < 6.00 | < 6.00
